The values below come from US20050220861A1, “Colonic release compostion” (priority 2002, published 2005).

The structures appear in SMILES notation. Read-outs that look alike come from different tables or passages of the source.

For series [1] the following is noted: for drug content of the formulation released from the pellets / prednisolone sodium metasulphobenzoate retained in the excreted pellets, mean: 3rd Phase I. The method, then:
(§1) Capsules containing coated pellets of prednisolone sodium metasulphobenzoate, equivalent to 60 mg prednisolone, were administered to seven healthy, fasted volunteers. Progress of the dose through the gastrointestinal tract was followed over 24 hours by gamma-scintigraphy after the co-administration of ethylcellulose coated ^111indium labelled non-pareils. Plasma levels of prednisolone were determined at various time points up to 48 hours after administration. Excreted drug pellets were harvested over five days and residual drug levels determined.
(§2) The trial comprised a combined gamma scintigraphic and pharmacokinetic study with excreted pellet analysis to the same design as the first Phase I study (above) following administration of the prednisolone sodium metasulphobenzoate ester at a dose of 94.2 mg, equivalent to 60 mg of prednisolone. In this second study, the thickness of the coating of the pellets was increased and the proportion of amylose was increased in the coat.
(§3) The trial comprised a combined gamma scintigraphic and pharmacokinetic study with excreted pellet analysis to the same design as the first Phase I study (above) following administration of prednisolone sodium metasulphobenzoate ester at a dose of 94.2 mg, equivalent to 60 mg prednisolone. In this third study, administering the coated prednisolone pellets to volunteers in the fed and fasted state was examined.

For series [2] the following is noted: human, in vivo, po. The method, then: Four phase I studies have been completed. In the first of these, an ethyl cellulose to amylose ratio of 5:1 was used with a 10% weight gain. The second and third studies, investigated the effect of a thicker coat (20% weight gain) at a 4:1 ethylcellulose to amylose ratio. All other features of the comparison formulation were the same.
as §1, §2, §3
The pellets were produced as described in Example 2.
This trial used a higher dose of prednisolone sodium metasulphobenzoate, equivalent to 100 mg of prednisolone.

Details of series [3]: Cmax (prednisolone) / AUC (prednisolone): unit not given beside the values. The following applies: cited from earlier work.
On the set-up of series [4]: unit not given beside the values. The following applies: in vivo, po, 40 mg; cited from earlier work.
The mark [5] stands for this setting: McIntyre et al 1985, 20 mg, rectal.

Broadly, the Cmax is the peak of the concentration-time curve. As to `C[C@]12C=CC(=O)C=C1CC[C@@H]1[C@@H]2[C@@H](O)C[C@@]2(C)[C@H]1CC[C@]2(O)C(=O)COC(=O)c1cccc(S(=O)(=O)[O-])c1.[Na+]` [Prednisolone metasulphobenzoate, prednisolone sodium metasulphobenzoate], the “amount of prednisolone recovered from pellets harvested from the faeces” value in series [1] (1st Phase I, 60 mg oral, average of all subjects) is 2.5 ± 1.12 mg. In addition, in series [1] (1st Phase I, all cases), the “prednisolone recovered from excreted pellets, % of the administered dose” value is listed as “less than 5%”. The “drug excreted in the pellets, % of the administered dose” value in series [1] (2nd Phase I) is listed as “less than 2%”. Also, the “arrival of the drug pellets at the ileo-caecal junction” value in series [1] (2nd Phase I, amylose:ethylcellulose 1:4, 20% weight gain) was found to be 5.9 ± 2.0 h. Further, the “mean quantity of drug excreted in the pellets, determined as prednisolone sodium metasulphobenzoate” value in series [1] (2nd Phase I, dose 94.2 mg ester) was found to be 1.7 mg. In addition, the “drug content of the formulation released from the pellets” value in series [1] (fasted) and in series [1] (fed) was “over 90%” each time. The “prednisolone sodium metasulphobenzoate retained in the excreted pellets, mean” value was found to be 6.1 ± 1.0 mg in series [1] (fasted, dose 94.2 mg ester) and 3.1 ± 1.2 mg in series [1] (fed, dose 94.2 mg ester). In addition, the “AUC (prednisolone)” value is 1441 ± 541 in series [2] (60 mg); 632 ± 509 in series [3] (in vivo, 60 mg); 2189 ± 475 in series [4]. Moreover, the “Cmax (prednisolone)” value in series [2] (60 mg) is given as 168 ± 56; in series [3] (in vivo, 60 mg), 147 ± 79; in series [4], 242 ± 58. Besides, the AUC was 152 ng·mL·h in series [2] (100 mg) and 632 ± 509 ng·mL·h in series [3] (in vivo, 60 mg). Besides, the Cmax in series [2] (100 mg) was 18.9 ng/mL; in series [3] (in vivo, 60 mg), 147 ± 79 ng/mL.
`C[C@]12C=CC(=O)C=C1CC[C@@H]1[C@@H]2[C@@H](O)C[C@@]2(C)[C@H]1CC[C@]2(O)C(=O)COP(=O)(O)O` [Prednisolone-21-phosphate]: in series [3] (setting [5]), the “AUC (prednisolone)” value is recorded as 599 ± 310 and the “Cmax (prednisolone)” value is reported as 148 ± 75.
